According to publication PMC5679212 (The Biochemical journal, 2014):

Legend:
Assay type in all cases: binding
[1] = target: ULK4 (unc-51 like kinase 4) (Homo sapiens, UniProt Q96C45); experiment: thermal-shift assay
[2] = target: T1, MLKL (mixed lineage kinase domain-like) (Homo sapiens, UniProt Q8NB16); experiment: ITC and thermal-shift assay
T1 sequence (Q8NB16 190-471 limits assumed): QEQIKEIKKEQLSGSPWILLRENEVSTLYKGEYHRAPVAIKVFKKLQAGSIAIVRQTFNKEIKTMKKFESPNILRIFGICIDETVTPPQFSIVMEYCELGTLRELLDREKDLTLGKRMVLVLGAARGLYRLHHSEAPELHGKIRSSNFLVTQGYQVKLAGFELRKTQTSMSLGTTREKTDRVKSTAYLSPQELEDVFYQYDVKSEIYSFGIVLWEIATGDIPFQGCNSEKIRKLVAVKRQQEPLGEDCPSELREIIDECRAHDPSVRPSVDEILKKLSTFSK

[3] = target: T2, EphB6 (Ephrin type-B receptor 6) (Homo sapiens, UniProt O15197); experiment: thermal-shift assay
T2 sequence (O15197 670-919 limits assumed): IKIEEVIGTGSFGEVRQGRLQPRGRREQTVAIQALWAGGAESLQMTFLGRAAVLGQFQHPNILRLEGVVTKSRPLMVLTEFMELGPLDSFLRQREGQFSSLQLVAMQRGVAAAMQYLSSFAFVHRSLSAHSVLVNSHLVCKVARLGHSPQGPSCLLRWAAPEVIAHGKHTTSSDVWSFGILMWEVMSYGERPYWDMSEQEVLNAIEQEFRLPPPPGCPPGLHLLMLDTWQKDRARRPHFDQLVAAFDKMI

[4] = target: TYK2(JH2) (Homo sapiens, UniProt P29597); experiment: thermal-shift assay
TYK2(JH2), sequence (P29597 575-869): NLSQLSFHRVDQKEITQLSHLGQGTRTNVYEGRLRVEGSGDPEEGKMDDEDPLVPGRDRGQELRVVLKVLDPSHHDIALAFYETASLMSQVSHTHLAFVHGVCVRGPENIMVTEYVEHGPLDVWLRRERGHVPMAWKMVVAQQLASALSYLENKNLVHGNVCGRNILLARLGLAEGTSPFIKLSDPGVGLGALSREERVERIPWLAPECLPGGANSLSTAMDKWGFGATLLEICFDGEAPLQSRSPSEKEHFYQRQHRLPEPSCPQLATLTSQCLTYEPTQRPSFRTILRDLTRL

ULK4 (unc-51 like kinase 4), sequence (Q96C45 1-288 limits assumed): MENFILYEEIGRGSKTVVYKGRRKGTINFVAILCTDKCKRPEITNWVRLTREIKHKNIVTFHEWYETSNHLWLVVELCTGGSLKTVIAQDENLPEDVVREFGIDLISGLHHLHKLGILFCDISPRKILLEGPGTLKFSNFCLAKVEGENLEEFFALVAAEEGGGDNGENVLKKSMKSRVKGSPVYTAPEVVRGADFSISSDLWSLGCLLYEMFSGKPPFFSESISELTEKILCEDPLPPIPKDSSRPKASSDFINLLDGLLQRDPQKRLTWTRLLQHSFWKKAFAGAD

Compound	thermal-shift assay (0.2 mM nucleotide) [1]	Kd [2] [µM]	thermal-shift assay (0.2 mM nucleotide) [3]	thermal-shift assay (40 μM ligand, ΔTm ≥3 °C) [4]
Nc1ncnc2c1ncn2[C@@H]1O[C@H](COP(=O)(O)OP(=O)(O)OP(=O)(O)O)[C@@H](O)[C@H]1O [ATP]	we observed that ATP binding was still accomplished by EphB6 and ULK4 (Figures 3C and 3E)	~15	we observed that ATP binding was still accomplished by EphB6 and ULK4 (Figures 3C and 3E)	
NCc1ccc(Nc2ncc(F)c(Nc3ccccc3)n2)cc1 [DAP, N′2′-(4-aminomethyl-phenyl)-5-fluoro-N′4′-phenyl-pyrimidine-2,4-diamine]				consistent with the binding to the small-molecule kinase inhibitors DAP and VI16832 observed in the present study (Figure 2E)
